Experimental data published in PubChem BioAssay (NCI).
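Cultured in 96-well plates, cells were exposed to test compound for 48 hours across five concentrations. GI50 = concentration required for 50% inhibition of growth. TGI: total growth inhibition.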

Experiments:
Test in all cases: inhibition of tumour cell growth, NCI panel, 48 h
A498 renal = test system: A498 renal
A549 NSCLC = test system: A549 NSCLC
ACHN renal = test system: ACHN renal
BT-549 breast = test system: BT-549 breast
CAKI-1 renal = test system: CAKI-1 renal
CCRF-CEM leukemia = test system: CCRF-CEM leukemia
COLO 205 colon = test system: COLO 205 colon
DU-145 prostate = test system: DU-145 prostate
EKVX NSCLC = test system: EKVX NSCLC
HCC-2998 colon = test system: HCC-2998 colon
HCT-116 colon = test system: HCT-116 colon
HCT-15 colon = test system: HCT-15 colon
HOP-62 NSCLC = test system: HOP-62 NSCLC
HOP-92 NSCLC = test system: HOP-92 NSCLC
HS 578T breast = test system: HS 578T breast
HT29 colon = test system: HT29 colon
IGROV1 ovarian = test system: IGROV1 ovarian
K-562 leukemia = test system: K-562 leukemia
KM12 colon = test system: KM12 colon
LOX IMVI melanoma = test system: LOX IMVI melanoma
M14 melanoma = test system: M14 melanoma
MALME-3M melanoma = test system: MALME-3M melanoma
MCF7 breast = test system: MCF7 breast
MDA-MB-231 breast = test system: MDA-MB-231 breast
MDA-MB-435 = test system: MDA-MB-435
MOLT-4 leukemia = test system: MOLT-4 leukemia
NCI-H226 lung = test system: NCI-H226 lung
NCI-H23 lung = test system: NCI-H23 lung
NCI-H460 lung = test system: NCI-H460 lung
NCI-H522 lung = test system: NCI-H522 lung
NCI/ADR-RES ovarian = test system: NCI/ADR-RES ovarian
OVCAR-3 ovarian = test system: OVCAR-3 ovarian
OVCAR-4 ovarian = test system: OVCAR-4 ovarian
OVCAR-5 ovarian = test system: OVCAR-5 ovarian
OVCAR-8 ovarian = test system: OVCAR-8 ovarian
PC-3 prostate = test system: PC-3 prostate
RPMI-8226 leukemia = test system: RPMI-8226 leukemia
SF-268 CNS = test system: SF-268 CNS
SF-295 CNS = test system: SF-295 CNS
SF-539 CNS = test system: SF-539 CNS
SK-MEL-2 melanoma = test system: SK-MEL-2 melanoma
SK-MEL-28 melanoma = test system: SK-MEL-28 melanoma
SK-MEL-5 melanoma = test system: SK-MEL-5 melanoma
SK-OV-3 ovarian = test system: SK-OV-3 ovarian
SN12C renal = test system: SN12C renal
SNB-19 CNS = test system: SNB-19 CNS
SNB-75 CNS = test system: SNB-75 CNS
SW-620 colon = test system: SW-620 colon
T-47D breast = test system: T-47D breast
TK-10 renal = test system: TK-10 renal
U251 CNS = test system: U251 CNS
UACC-257 melanoma = test system: UACC-257 melanoma
UACC-62 melanoma = test system: UACC-62 melanoma
UO-31 renal = test system: UO-31 renal

## O=C1OCC(C#Cc2ccccc2)=C1Cl
A498 renal
  GI50: 12 µM
  TGI: 38 µM
A549 NSCLC
  GI50: 5.02 µM
  TGI: > 100 µM
ACHN renal
  GI50: 2.49 µM
  TGI: 6.56 µM
BT-549 breast
  GI50: 7.87 µM
  TGI: 33.4 µM
CAKI-1 renal
  GI50: 3.27 µM
  TGI: 26.7 µM
CCRF-CEM leukemia
  GI50: 0.222 µM
  TGI: 18.1 µM
COLO 205 colon
  GI50: 2.33 µM
  TGI: 7.79 µM
DU-145 prostate
  GI50: 1.6 µM
  TGI: 11.8 µM
EKVX NSCLC
  GI50: 1.91 µM
  TGI: 6.17 µM
HCC-2998 colon
  GI50: 3.78 µM
  TGI: 15.2 µM
HCT-116 colon
  GI50: 0.322 µM
  TGI: 1.38 µM
HCT-15 colon
  GI50: 4.36 µM
  TGI: 15.7 µM
HOP-62 NSCLC
  GI50: 0.388 µM
  TGI: 1.7 µM
HOP-92 NSCLC
  GI50: 2.14 µM
  TGI: 6.84 µM
HS 578T breast
  GI50: 2.46 µM
  TGI: 18 µM
HT29 colon
  GI50: 1.05 µM
  TGI: 12.9 µM
IGROV1 ovarian
  GI50: 1.88 µM
  TGI: > 100 µM
K-562 leukemia
  GI50: 1.86 µM
  TGI: 14.6 µM
KM12 colon
  GI50: 2.65 µM
  TGI: 12.1 µM
LOX IMVI melanoma
  GI50: 4.31 µM
  TGI: 14.9 µM
M14 melanoma
  GI50: 3.88 µM
  TGI: 16.4 µM
MALME-3M melanoma
  GI50: 13.4 µM
  TGI: 36.5 µM
MCF7 breast
  GI50: 1.71 µM
  TGI: > 100 µM
MDA-MB-231 breast
  GI50: 1.19 µM
  TGI: 6.39 µM
MDA-MB-435
  GI50: 6.92 µM
  TGI: 42.6 µM
MOLT-4 leukemia
  GI50: 14.3 µM
  TGI: 46.1 µM
NCI-H226 lung
  GI50: 3.11 µM
  TGI: 7.13 µM
NCI-H23 lung
  GI50: 14 µM
  TGI: 26.9 µM
NCI-H460 lung
  GI50: 7.59 µM
  TGI: > 100 µM
NCI-H522 lung
  GI50: 3.08 µM
  TGI: 14.7 µM
NCI/ADR-RES ovarian
  GI50: 3.32 µM
  TGI: 13.8 µM
OVCAR-3 ovarian
  GI50: 1.9 µM
  TGI: 10.8 µM
OVCAR-4 ovarian
  GI50: 15.5 µM
  TGI: 73.1 µM
OVCAR-5 ovarian
  GI50: 3.59 µM
  TGI: 15 µM
OVCAR-8 ovarian
  GI50: 3.45 µM
  TGI: > 100 µM
PC-3 prostate
  GI50: 1.99 µM
  TGI: 5.67 µM
RPMI-8226 leukemia
  GI50: 1.56 µM
  TGI: 4.61 µM
SF-268 CNS
  GI50: 6.82 µM
  TGI: 72.7 µM
SF-295 CNS
  GI50: 21.6 µM
  TGI: > 100 µM
SF-539 CNS
  GI50: 2.52 µM
  TGI: 19.5 µM
SK-MEL-2 melanoma
  GI50: 8.61 µM
  TGI: 40.7 µM
SK-MEL-28 melanoma
  GI50: 1.7 µM
  TGI: 5.16 µM
SK-MEL-5 melanoma
  GI50: 10 µM
  TGI: 23.5 µM
SK-OV-3 ovarian
  GI50: 37.7 µM
  TGI: > 100 µM
SN12C renal
  GI50: 2.89 µM
  TGI: 12.3 µM
SNB-19 CNS
  GI50: 7.49 µM
  TGI: 67.9 µM
SNB-75 CNS
  GI50: 19.8 µM
  TGI: 46.2 µM
SW-620 colon
  GI50: 0.83 µM
  TGI: 5.07 µM
T-47D breast
  GI50: 12.6 µM
  TGI: 30.3 µM
TK-10 renal
  GI50: 1.61 µM
  TGI: 6.38 µM
U251 CNS
  GI50: 1.59 µM
  TGI: 3.13 µM
UACC-257 melanoma
  GI50: 4.34 µM
  TGI: 40.2 µM
UACC-62 melanoma
  GI50: 6.21 µM
  TGI: 18.8 µM
UO-31 renal
  GI50: 2.15 µM
  TGI: > 100 µM
